One experiment has as its target T1, human TLR8 (Homo sapiens, UniProt Q9NR97).
T1 construct: expressed in transfected cells; host or cells: HEK293
T1 sequence (Q9NR97 27-1041): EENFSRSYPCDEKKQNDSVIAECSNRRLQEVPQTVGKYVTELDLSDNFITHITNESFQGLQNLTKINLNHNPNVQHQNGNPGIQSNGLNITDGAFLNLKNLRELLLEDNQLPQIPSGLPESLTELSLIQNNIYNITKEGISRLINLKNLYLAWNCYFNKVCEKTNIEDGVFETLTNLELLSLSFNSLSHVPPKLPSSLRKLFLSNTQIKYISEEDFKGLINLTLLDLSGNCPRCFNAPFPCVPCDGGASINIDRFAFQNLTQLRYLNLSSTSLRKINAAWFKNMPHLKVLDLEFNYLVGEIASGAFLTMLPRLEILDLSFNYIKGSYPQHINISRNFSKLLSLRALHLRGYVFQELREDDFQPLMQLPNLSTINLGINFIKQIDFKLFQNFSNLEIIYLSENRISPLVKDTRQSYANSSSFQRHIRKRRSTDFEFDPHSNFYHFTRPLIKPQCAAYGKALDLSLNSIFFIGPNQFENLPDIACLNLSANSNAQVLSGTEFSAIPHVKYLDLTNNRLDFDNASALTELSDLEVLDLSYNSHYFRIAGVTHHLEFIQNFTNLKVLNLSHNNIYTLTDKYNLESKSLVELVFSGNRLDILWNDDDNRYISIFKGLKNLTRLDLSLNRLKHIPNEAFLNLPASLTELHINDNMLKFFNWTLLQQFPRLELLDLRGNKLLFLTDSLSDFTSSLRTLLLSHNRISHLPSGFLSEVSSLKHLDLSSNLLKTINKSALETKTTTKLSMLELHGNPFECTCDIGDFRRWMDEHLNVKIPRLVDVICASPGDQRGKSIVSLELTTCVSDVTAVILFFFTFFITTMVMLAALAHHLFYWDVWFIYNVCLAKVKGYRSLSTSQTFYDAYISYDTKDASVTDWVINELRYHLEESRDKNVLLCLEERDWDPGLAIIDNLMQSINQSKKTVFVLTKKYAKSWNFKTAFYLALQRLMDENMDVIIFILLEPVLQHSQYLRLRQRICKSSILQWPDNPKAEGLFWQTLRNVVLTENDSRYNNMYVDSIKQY
The experiment can be described thus: TLR ligand screening, NF-κB SEAP reporter in HEK293 cells expressing TLR8. Type of experiment: cell-based. The conditions noted are these: one concentration: NTR001 10 uM, Inosine 100 uM; FIG. 2. How it is done:
(§1) TLR stimulation is tested by assessing NF-κB activation in HEK293 cells expressing a given TLR. The Secreted Embryonic Alkaline Phosphatase (SEAP) reporter is under the control of a promoter inducible by the transcription factor NF-κB. This reporter gene allows the monitoring of signaling through the TLR, based on the activation of NF-κB. The compounds are evaluated at one concentration and compared to control ligands. This step is performed in triplicate.

Another experiment concerns the target T2, human TLR9 (Homo sapiens, UniProt Q9NR96).
T2 construct: expressed in transfected cells; host or cells: HEK293
T2 sequence (Q9NR96 26-1032): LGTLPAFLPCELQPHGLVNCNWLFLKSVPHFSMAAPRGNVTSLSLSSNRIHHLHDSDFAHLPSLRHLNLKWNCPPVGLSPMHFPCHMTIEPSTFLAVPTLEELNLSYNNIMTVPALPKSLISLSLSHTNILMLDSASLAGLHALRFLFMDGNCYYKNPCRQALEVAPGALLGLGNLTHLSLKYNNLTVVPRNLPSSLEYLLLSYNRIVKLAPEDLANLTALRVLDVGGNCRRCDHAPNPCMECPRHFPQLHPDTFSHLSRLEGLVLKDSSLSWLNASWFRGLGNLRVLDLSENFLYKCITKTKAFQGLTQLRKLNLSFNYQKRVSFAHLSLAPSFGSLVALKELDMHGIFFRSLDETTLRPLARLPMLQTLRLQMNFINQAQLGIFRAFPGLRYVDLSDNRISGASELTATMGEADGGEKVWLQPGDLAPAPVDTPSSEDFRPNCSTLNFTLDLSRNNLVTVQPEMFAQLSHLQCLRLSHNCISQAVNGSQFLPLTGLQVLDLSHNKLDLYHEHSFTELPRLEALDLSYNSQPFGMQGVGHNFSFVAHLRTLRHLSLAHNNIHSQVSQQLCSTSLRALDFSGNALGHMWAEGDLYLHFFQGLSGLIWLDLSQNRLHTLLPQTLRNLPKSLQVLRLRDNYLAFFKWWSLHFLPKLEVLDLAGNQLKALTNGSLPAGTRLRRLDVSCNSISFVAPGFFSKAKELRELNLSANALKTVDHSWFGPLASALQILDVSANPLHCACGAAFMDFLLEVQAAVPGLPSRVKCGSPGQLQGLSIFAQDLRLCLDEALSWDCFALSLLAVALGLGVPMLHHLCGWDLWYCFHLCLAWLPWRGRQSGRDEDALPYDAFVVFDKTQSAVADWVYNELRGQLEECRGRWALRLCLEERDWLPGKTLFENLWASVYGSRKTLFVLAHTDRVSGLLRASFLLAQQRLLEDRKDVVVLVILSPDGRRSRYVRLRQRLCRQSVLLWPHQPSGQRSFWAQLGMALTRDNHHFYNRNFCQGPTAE
The experiment can be described thus: TLR ligand screening, NF-κB SEAP reporter in HEK293 cells expressing TLR9. Type of experiment: cell-based. The settings on record: one concentration: NTR001 10 uM, Inosine 100 uM; FIG. 2. How it is done: as §1

For the molecule `O=c1[nH]cnc2c([C@@H]3N[C@H](CO)[C@@H](O)[C@H]3O)c[nH]c12` [NTR001, 7-[(2S,3S,4R,5R)-3,4-dihydroxy-5-(hydroxymethyl)-2-pyrrolidinyl]-1,5-dihydro-4H-pyrrolo[3,2-d]pyrimidin-4-one], the “stimulatory effect on human TLR8 (NF-κB activation)” value on human TLR8 is on record as “do not exhibit a stimulatory effect”. Further, the “stimulatory effect on human TLR9 (NF-κB activation)” value at human TLR9 is “do not exhibit a stimulatory effect”.
With `OC[C@H]1O[C@@H](n2cnc3c(O)ncnc32)[C@H](O)[C@@H]1O` [Inosine], the “stimulatory effect on human TLR8 (NF-κB activation)” value at human TLR8 is on record as “do not exhibit a stimulatory effect”. At human TLR9, the “stimulatory effect on human TLR9 (NF-κB activation)” value is on record as “do not exhibit a stimulatory effect”.
